In this experiment the target is T1, human PD-1 / PD-L1-Ig binding on Jurkat cell line over-expressing human PD-1 (Jurkat-PD-1) (Homo sapiens, UniProt Q15116).
T1 construct: expressed in transfected cells; host or cells: Jurkat
Kind of experiment: Jurkat-PD-1 Cell Binding High-Content Screening Assay (CBA). It counts as cell-based. As to conditions: Jurkat-PD-1 cells, PE-labeled PD-L1-Ig 20 nM final; read-out: Jurkat HPD1_PDL1 IC50. The essentials:
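Cell-bound PE-labeled PD-L1-Ig (20 nM final, 1 h) measured by high-content imaging after fixation and Hoechst 33342 counterstain. Compound was applied first for 2 h at 37° C. to Jurkat cells over-expressing human PD-1 in DMEM with 10% FCS.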

Structures are written as SMILES. Where a SMILES comes first, the peptide text is derived from it. Bridges are numbered along the chain shown (N, C = ends). [ ]: non-standard residue; d: D form. The star is where a group is joined. ξ: configuration not given here. Bip(3'-COOH) = N[C@@H](Cc1ccc(-c2cccc(C(=O)O)c2)cc1)C(=O)O; Phe(4-NO2) = N[C@@H](Cc1ccc([N+](=O)[O-])cc1)C(=O)O; Phe(3,4,5-F3) = N[C@@H](Cc1cc(F)c(F)c(F)c1)C(=O)O; Phe(3-CF3) = N[C@@H](Cc1cccc(C(F)(F)F)c1)C(=O)O; Phe(4-COOH) = N[C@@H](Cc1ccc(C(=O)O)cc1)C(=O)O; Phe(3,4-F2) = N[C@@H](Cc1ccc(F)c(F)c1)C(=O)O; Bip = N[C@@H](Cc1ccc(-c2ccccc2)cc1)C(=O)O; Phe(3-Me) = Cc1cccc(C[C@H](N)C(=O)O)c1; aIle = CC[C@@H](C)[C@H](N)C(=O)O; 4Pal = N[C@@H](Cc1ccncc1)C(=O)O; Cha = N[C@@H](CC1CCCCC1)C(=O)O; Cit = NC(=O)NCCC[C@H](N)C(=O)O; dCha = N[C@H](CC1CCCCC1)C(=O)O; Thr(3ξ) = CC(O)[C@H](N)C(=O)O; hSer = N[C@@H](CCO)C(=O)O; Carboxymethyl = O=C(O)C*; Nle = CCCC[C@H](N)C(=O)O; Orn = NCCC[C@H](N)C(=O)O; Dab = NCC[C@H](N)C(=O)O; Dap = NC[C@H](N)C(=O)O

T1 sequence (Q15116 25-288): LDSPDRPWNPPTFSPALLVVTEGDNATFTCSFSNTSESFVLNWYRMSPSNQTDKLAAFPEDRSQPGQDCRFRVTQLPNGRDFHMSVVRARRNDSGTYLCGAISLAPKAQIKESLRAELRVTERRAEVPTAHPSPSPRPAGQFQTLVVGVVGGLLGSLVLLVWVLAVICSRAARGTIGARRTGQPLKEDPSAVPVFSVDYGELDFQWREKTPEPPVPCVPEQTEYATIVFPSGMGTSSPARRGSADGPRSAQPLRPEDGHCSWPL

With `CC(C)C[C@H]1NC(=O)[C@H](CCCN)NC(=O)[C@H](CCC(=O)O)NC(=O)[C@H](Cc2ccc(-c3ccccc3)cc2)NC(=O)[C@H](C(C)C)NC(=O)[C@H](Cc2c[nH]c3ccccc23)NC(=O)[C@H](CC(=O)O)NC(=O)[C@H](Cc2ccc(OCC(=O)O)cc2)NC(=O)[C@H](CN)NC(=O)CSC[C@@H](C(=O)N[C@@H](C)C(N)=O)NC(=O)[C@H]([C@@H](C)O)NC(=O)[C@H](C(C)C)NC(=O)[C@H](Cc2cccc(C(F)(F)F)c2)NC(=O)[C@H](CCN)NC1=O` [Compound 1468] ({CH2CO}-[Dap]Y(Carboxymethyl)DWV[Bip]E[Orn][dL][Dab][Phe(3-CF3)]VTCA-NH2; thioether N-14), the IC50 was 73.5 nM.

Regarding `CC(C)C[C@H]1NC(=O)[C@H](CCCN)NC(=O)[C@H](CCCNC(N)=O)NC(=O)[C@H](Cc2ccc(-c3ccccc3)cc2)NC(=O)[C@H](C(C)C)NC(=O)[C@H](Cc2c[nH]c3ccccc23)NC(=O)[C@H](CC(=O)O)NC(=O)[C@H](Cc2ccc(F)c(F)c2)NC(=O)[C@H](CN)NC(=O)CSC[C@@H](C(=O)N[C@@H](C)C(N)=O)NC(=O)[C@H]([C@@H](C)O)NC(=O)[C@H](C(C)C)NC(=O)[C@H](CC2CCCCC2)NC(=O)[C@H](CCN)NC1=O` [Compound 2129] ({CH2CO}-[Dap][Phe(3,4-F2)]DWV[Bip][Cit][Orn][dL][Dab][Cha]VTCA-NH2; thioether N-14), the IC50 is 48.2 nM.

For `Cc1cccc(C[C@@H]2NC(=O)[C@H](CC(=O)O)NC(=O)[C@H](Cc3ccc(OCC(=O)O)cc3)NC(=O)[C@H](Cc3ccncc3)NC(=O)CSC[C@@H](C(=O)N[C@@H](C)C(N)=O)NC(=O)[C@H]([C@@H](C)O)NC(=O)[C@H](C(C)C)NC(=O)[C@H](CC(C)C)NC(=O)[C@H](CCN)NC(=O)[C@@H](CC(C)C)NC(=O)[C@H](CCCN)NC(=O)[C@H](CCCNC(N)=O)NC(=O)[C@H](Cc3ccc(-c4ccccc4)cc3)NC(=O)[C@H](C(C)C)NC2=O)c1` [Compound 1184] ({CH2CO}-[4Pal]Y(Carboxymethyl)D[Phe(3-Me)]V[Bip][Cit][Orn][dL][Dab]LVTCA-NH2; thioether N-14), the IC50 came out at 6.2 nM.

Regarding `CCCC[C@H]1NC(=O)[C@H](CCCN)NC(=O)[C@H](CCCNC(N)=O)NC(=O)[C@H](Cc2ccc(-c3ccccc3)cc2)NC(=O)[C@H](C(C)C)NC(=O)[C@H](Cc2c[nH]c3ccccc23)NC(=O)[C@H](CC(=O)O)NC(=O)[C@H](Cc2ccc(OCC(=O)O)cc2)NC(=O)[C@H](Cc2ccc(OCC(=O)O)cc2)NC(=O)CSC[C@@H](C(=O)N[C@@H](C)C(N)=O)NC(=O)[C@H]([C@@H](C)O)NC(=O)[C@H](C(C)C)NC(=O)[C@H](CC2CCCCC2)NC(=O)[C@H](CCN)NC1=O` [Compound 1698], the IC50 is 32.3 nM.

Turning to `CCCC[C@@H]1NC(=O)[C@H](CCN)NC(=O)[C@@H](CC(C)C)NC(=O)[C@H](CCCN)NC(=O)[C@H](C(C)C)NC(=O)[C@H](Cc2ccc(-c3ccccc3)cc2)NC(=O)[C@H](C(C)C)NC(=O)[C@H](Cc2cccc(C)c2)NC(=O)[C@H](CC(=O)O)NC(=O)[C@H](Cc2ccc(OCC(=O)O)cc2)NC(=O)[C@H](CN)NC(=O)CSC[C@@H](C(=O)N[C@@H](C)C(N)=O)NC(=O)[C@H]([C@@H](C)O)NC(=O)[C@H](C(C)C)NC1=O` [Compound 1211] ({CH2CO}-[Dap]Y(Carboxymethyl)D[Phe(3-Me)]V[Bip]V[Orn][dL][Dab][Nle]VTCA-NH2; thioether N-14), the IC50 stood at 8.9 nM.

As to `CC[C@@H](C)[C@@H]1NC(=O)[C@H](Cc2ccc(-c3ccccc3)cc2)NC(=O)[C@H](C(C)C)NC(=O)[C@H](Cc2c[nH]c3ccccc23)NC(=O)[C@H](CC(=O)O)NC(=O)[C@H](Cc2ccc(C(=O)O)cc2)NC(=O)[C@H](Cc2ccc(OCC(=O)O)cc2)NC(=O)CSC[C@@H](C(=O)N[C@@H](C)C(N)=O)NC(=O)[C@H]([C@@H](C)O)NC(=O)[C@H](C(C)C)NC(=O)[C@H](CC2CCCCC2)NC(=O)[C@H](CCN)NC(=O)[C@@H](CC2CCCCC2)NC(=O)[C@H](CCCN)NC1=O` [Compound 1626] ({CH2CO}-Y(Carboxymethyl)[Phe(4-COOH)]DWV[Bip][aIle][Orn][dCha][Dab][Cha]VTCA-NH2; thioether N-14), the concentration for half-maximal inhibition (IC50) was 51.9 nM.

For `CC(C)C[C@H]1NC(=O)[C@H](CCCN)NC(=O)[C@H](CCC(=O)O)NC(=O)[C@H](Cc2ccc(-c3ccccc3)cc2)NC(=O)[C@H](C(C)C)NC(=O)[C@H](Cc2c[nH]c3ccccc23)NC(=O)[C@H](CC(=O)O)NC(=O)[C@H](Cc2ccc(-c3cccc(C(=O)O)c3)cc2)NC(=O)[C@H](Cc2ccccc2)NC(=O)CSC[C@@H](C(=O)N[C@@H](C)C(N)=O)NC(=O)[C@H]([C@@H](C)O)NC(=O)[C@H](C(C)C)NC(=O)[C@H](CC2CCCCC2)NC(=O)[C@H](CCN)NC1=O` [Compound 2161] ({CH2CO}-F[Bip(3'-COOH)]DWV[Bip]E[Orn][dL][Dab][Cha]VTCA-NH2; thioether N-14), the IC50 was found to be 27 nM.

In the case of `CC(C)C[C@@H]1NC(=O)[C@H](Cc2c[nH]c3ccccc23)NC(=O)[C@H](CC(=O)O)NC(=O)[C@H](Cc2ccc(OCC(=O)O)cc2)NC(=O)[C@H](C(C)O)NC(=O)CSC[C@@H](C(N)=O)NC(=O)[C@H](CO)NC(=O)[C@H](C(C)C)NC(=O)[C@H](CC2CCCCC2)NC(=O)[C@H](Cc2cnc[nH]2)NC(=O)[C@@H](CC(C)C)NC(=O)[C@H](Cc2cnc[nH]2)NC(=O)[C@H](C(C)C)NC(=O)[C@H](Cc2ccc(-c3ccccc3)cc2)NC1=O` (stereo partly drawn) [Compound 2604] ({CH2CO}-[Thr(3ξ)]Y(Carboxymethyl)DWL[Bip]VH[dL]H[Cha]VSC-NH2; thioether N-14), the IC50 came to 234 nM.

Consider `CC[C@H](C)[C@@H]1NC(=O)[C@H](Cc2ccc(-c3ccccc3)cc2)NC(=O)[C@H](C(C)C)NC(=O)[C@H](Cc2c[nH]c3ccccc23)NC(=O)[C@H](CC(=O)O)NC(=O)[C@H](Cc2ccncc2)NC(=O)[C@H](CN)NC(=O)CSC[C@@H](C(=O)N[C@@H](C)C(N)=O)NC(=O)[C@H]([C@@H](C)O)NC(=O)[C@H](C(C)C)NC(=O)[C@H](CC(C)C)NC(=O)[C@H](CCN)NC(=O)[C@@H](CC(C)C)NC(=O)[C@H](CCCN)NC1=O` [Compound 1238] ({CH2CO}-[Dap][4Pal]DWV[Bip]I[Orn][dL][Dab]LVTCA-NH2; thioether N-14), for which the IC50 worked out at 15 nM.

As to `CC(C)C[C@H]1NC(=O)[C@H](CCCN)NC(=O)[C@H](CCCNC(N)=O)NC(=O)[C@H](Cc2ccc(-c3ccccc3)cc2)NC(=O)[C@H](C(C)C)NC(=O)[C@H](Cc2c[nH]c3ccccc23)NC(=O)[C@H](CC(=O)O)NC(=O)[C@H](Cc2ccc([N+](=O)[O-])cc2)NC(=O)[C@H](CN)NC(=O)CSC[C@@H](C(=O)N[C@@H](C)C(N)=O)NC(=O)[C@H]([C@@H](C)O)NC(=O)[C@H](C(C)C)NC(=O)[C@H](CC2CCCCC2)NC(=O)[C@H](CCN)NC1=O` [Compound 2110] ({CH2CO}-[Dap][Phe(4-NO2)]DWV[Bip][Cit][Orn][dL][Dab][Cha]VTCA-NH2; thioether N-14), the IC50 came out at 18.2 nM.

With `CC(C)C[C@H]1NC(=O)[C@H](CCCN)NC(=O)[C@H](CCCNC(N)=O)NC(=O)[C@H](Cc2ccc(-c3ccccc3)cc2)NC(=O)[C@H](C(C)C)NC(=O)[C@H](Cc2c[nH]c3ccccc23)NC(=O)[C@H](CC(=O)O)NC(=O)[C@H](Cc2ccc(OCC(=O)O)cc2)NC(=O)[C@H](CN)NC(=O)CSC[C@@H](C(=O)N[C@@H](C)C(N)=O)NC(=O)[C@H]([C@@H](C)O)NC(=O)[C@H](C(C)C)NC(=O)[C@H](Cc2ccccn2)NC(=O)[C@H](CCN)NC1=O` [Compound 1349], the IC50 worked out at 54.9 nM.

As for `CC(C)C[C@@H]1NC(=O)[C@H](Cc2c[nH]c3ccccc23)NC(=O)[C@H](CC(=O)O)NC(=O)[C@H](Cc2ccc(OCC(=O)O)cc2)NC(=O)[C@H](Cc2ccncc2)NC(=O)CSC[C@@H](C(=O)NCC(N)=O)NC(=O)[C@H](CO)NC(=O)[C@H](C(C)C)NC(=O)[C@H](CC2CCCCC2)NC(=O)[C@H](CCN)NC(=O)[C@@H](CC(C)C)NC(=O)[C@H](CCCN)NC(=O)[C@H](C(C)C)NC(=O)[C@H](Cc2ccc(-c3ccccc3)cc2)NC1=O` [Compound 1402] ({CH2CO}-[4Pal]Y(Carboxymethyl)DWL[Bip]V[Orn][dL][Dab][Cha]VSCG-NH2; thioether N-14), the IC50 was 9.9 nM.

As for `CC(C)C[C@@H]1NC(=O)[C@H](CC(N)=O)NC(=O)[C@@H](CC(C)C)NC(=O)[C@H](CN)NC(=O)[C@H](C(C)C)NC(=O)[C@H](Cc2ccc(-c3ccccc3)cc2)NC(=O)[C@H](C(C)C)NC(=O)[C@H](Cc2c[nH]c3ccccc23)NC(=O)[C@H](CC(=O)O)NC(=O)[C@H](Cc2ccc(OCC(=O)O)cc2)NC(=O)[C@H](CN)NC(=O)CSC[C@@H](C(=O)NCC(N)=O)NC(=O)[C@H](CO)NC(=O)[C@H](C(C)C)NC1=O` [Compound 1289] ({CH2CO}-[Dap]Y(Carboxymethyl)DWV[Bip]V[Dap][dL]NLVSCG-NH2; thioether N-14), the IC50 came out at 11 nM.

With `COCC[C@@H]1NC(=O)[C@H](CN)NC(=O)CSC[C@@H](C(=O)N[C@@H](C)C(N)=O)NC(=O)[C@H]([C@@H](C)O)NC(=O)[C@H](C(C)C)NC(=O)[C@H](CC2CCCCC2)NC(=O)[C@H](CCN)NC(=O)[C@@H](CC(C)C)NC(=O)[C@H](CCCN)NC(=O)[C@H](CCCNC(N)=O)NC(=O)[C@H](Cc2ccc(-c3ccccc3)cc2)NC(=O)[C@H](C(C)C)NC(=O)[C@H](Cc2c[nH]c3ccccc23)NC(=O)[C@H](CC(=O)O)NC1=O` [Compound 2133] ({CH2CO}-[Dap][hSer](Me)DWV[Bip][Cit][Orn][dL][Dab][Cha]VTCA-NH2; thioether N-14), the IC50 was 24.6 nM.

As for `CC(C)C[C@H]1NC(=O)[C@H](CCCN)NC(=O)[C@H](CCCNC(N)=O)NC(=O)[C@H](Cc2ccc(-c3ccccc3)cc2)NC(=O)[C@H](C(C)C)NC(=O)[C@H](Cc2c[nH]c3ccccc23)NC(=O)[C@H](CC(=O)O)NC(=O)[C@H](Cc2cc(F)c(F)c(F)c2)NC(=O)[C@H](CN)NC(=O)CSC[C@@H](C(=O)N[C@@H](C)C(N)=O)NC(=O)[C@H]([C@@H](C)O)NC(=O)[C@H](C(C)C)NC(=O)[C@H](CC2CCCCC2)NC(=O)[C@H](CCN)NC1=O` [Compound 2127] ({CH2CO}-[Dap][Phe(3,4,5-F3)]DWV[Bip][Cit][Orn][dL][Dab][Cha]VTCA-NH2; thioether N-14), the IC50 is 47.4 nM.
